Test results: ChEMBL document CHEMBL5444388, “Affinity Phenotypic Cellular Literature for EUbOPEN Chemogenomic Library” (2024)
One block for each compound: values may come before it.

Assays:
Activated CDC42 kinase 1 = Activated CDC42 kinase 1 (Homo sapiens, UniProt Q07912); assay type: functional, cell-based, T-cell
[1] = target: Protein arginine N-methyltransferase 1 (Homo sapiens, UniProt Q99873); assay: Affinity Phenotypic Cellular interaction: (Western Blot (inhibitor of H4R3 methylation in MCF-7 cells)) EUB0000261b PRMT1; assay type: functional, cell-based, MCF7; design: mode of action Negative control for MS023, recommended concentration 1 uM
[2] = target: Protein arginine N-methyltransferase 3 (Homo sapiens, UniProt O60678); assay: Affinity Phenotypic Cellular interaction: (Western Blot (inhibitor of H4R3 methylation in MCF-7 cells)) EUB0000261b PRMT3; assay type: functional, cell-based, MCF7; design: mode of action Negative control for MS023, recommended concentration 1 uM
[3] = target: Protein arginine N-methyltransferase 8 (Homo sapiens, UniProt Q9NR22); assay: Affinity Phenotypic Cellular interaction: (Western Blot (inhibitor of H4R3 methylation in MCF-7 cells)) EUB0000261b PRMT8; assay type: functional, cell-based, MCF7; design: mode of action Negative control for MS023, recommended concentration 1 uM
[4] = target: T1, Bromodomain-containing protein 3 (Homo sapiens, UniProt Q15059); assay type: functional, cell-based, PBMC
[5] = target: T2, Bromodomain testis-specific protein (Homo sapiens, UniProt Q58F21); assay: Affinity Phenotypic Cellular interaction: (Meso-scale discovery human IL6 assay (cytokine production in LPS stimulated PBMC cells)) EUB0000102c BRDT; assay type: functional, cell-based; design: mode of action Inhibitor, recommended concentration 1 uM
[6] = target: T1, Bromodomain-containing protein 3; assay type: functional, tissue-based, Blood
[7] = target: T1, Bromodomain-containing protein 3; assay type: functional, tissue-based, Blood; remark: listed apart in the source
[8] = target: T2, Bromodomain testis-specific protein; assay: Affinity Phenotypic Cellular interaction: (Meso-scale discovery human IL6 assay (cytokine production in LPS stimmulated human WB)) EUB0000102c BRDT; assay type: functional, tissue-based, Blood; design: mode of action Inhibitor, recommended concentration 1 uM
[9] = target: T2, Bromodomain testis-specific protein; assay: Affinity Phenotypic Cellular interaction: (Meso-scale discovery human IL6 assay (cytokine production in LPS stimulated human WB)) EUB0000102c BRDT; assay type: functional, tissue-based, Blood; design: mode of action Inhibitor, recommended concentration 1 uM
[10] = target: Cyclin-dependent kinase 8 (Homo sapiens, UniProt P49336); assay: Affinity Phenotypic Cellular interaction: (Inhibition of pSTAT S727 in NK-92 cells) EUB0000163b CDK8; assay type: functional, cell-based; design: mode of action Negative control for BI-1347, recommended concentration 100 nM
[11] = target: T3, MAP kinase-activated protein kinase 2 (Homo sapiens, UniProt P49137); assay type: functional, cell-based, Monocyte
[12] = target: T3, MAP kinase-activated protein kinase 2; assay type: functional, cell-based, Monocyte; remark: listed apart in the source
[13] = target: T3, MAP kinase-activated protein kinase 2; assay type: functional, cell-based, Monocyte; remark: listed apart in the source
[14] = target: T3, MAP kinase-activated protein kinase 2; assay type: functional, cell-based, Monocyte; remark: listed apart in the source
[15] = target: T4, MAP kinase-activated protein kinase 3 (Homo sapiens, UniProt Q16644); assay type: functional, cell-based, Monocyte
[16] = target: T4, MAP kinase-activated protein kinase 3; assay type: functional, cell-based, Monocyte; remark: listed apart in the source
[17] = target: T4, MAP kinase-activated protein kinase 3; assay type: functional, cell-based, Monocyte; remark: listed apart in the source
[18] = target: T5, MAP kinase-activated protein kinase 5 (Homo sapiens, UniProt Q8IW41); assay type: functional, cell-based, Monocyte
T5 sequence (Q8IW41 whole entry): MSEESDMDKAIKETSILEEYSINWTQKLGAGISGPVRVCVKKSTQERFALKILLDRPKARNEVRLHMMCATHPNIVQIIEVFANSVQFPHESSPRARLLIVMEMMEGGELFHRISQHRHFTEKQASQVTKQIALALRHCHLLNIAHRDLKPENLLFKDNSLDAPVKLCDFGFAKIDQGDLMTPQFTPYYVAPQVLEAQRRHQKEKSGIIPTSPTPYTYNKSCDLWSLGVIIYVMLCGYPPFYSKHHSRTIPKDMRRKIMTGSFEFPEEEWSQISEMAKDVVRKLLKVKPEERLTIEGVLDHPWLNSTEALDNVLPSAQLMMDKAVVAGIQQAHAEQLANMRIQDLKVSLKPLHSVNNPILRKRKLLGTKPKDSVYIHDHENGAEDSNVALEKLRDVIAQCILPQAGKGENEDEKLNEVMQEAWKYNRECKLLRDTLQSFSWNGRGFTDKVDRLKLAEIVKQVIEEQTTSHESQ

[19] = target: T5, MAP kinase-activated protein kinase 5; assay type: functional, cell-based, Monocyte; remark: listed apart in the source
[20] = target: T5, MAP kinase-activated protein kinase 5; assay type: functional, cell-based, Monocyte; remark: listed apart in the source
[21] = target: 5'-AMP-activated protein kinase catalytic subunit alpha-1 (Homo sapiens, UniProt Q13131); assay: Affinity Phenotypic Cellular interaction: (Cellular mechanistic pACC assay using IMR-32 neuroblastoma cells) EUB0000311b PRKAA1; assay type: functional, cell-based; design: mode of action Inhibitor, recommended concentration 100 nM
Sequence of 5'-AMP-activated protein kinase catalytic subunit alpha-1 (Q13131 whole entry): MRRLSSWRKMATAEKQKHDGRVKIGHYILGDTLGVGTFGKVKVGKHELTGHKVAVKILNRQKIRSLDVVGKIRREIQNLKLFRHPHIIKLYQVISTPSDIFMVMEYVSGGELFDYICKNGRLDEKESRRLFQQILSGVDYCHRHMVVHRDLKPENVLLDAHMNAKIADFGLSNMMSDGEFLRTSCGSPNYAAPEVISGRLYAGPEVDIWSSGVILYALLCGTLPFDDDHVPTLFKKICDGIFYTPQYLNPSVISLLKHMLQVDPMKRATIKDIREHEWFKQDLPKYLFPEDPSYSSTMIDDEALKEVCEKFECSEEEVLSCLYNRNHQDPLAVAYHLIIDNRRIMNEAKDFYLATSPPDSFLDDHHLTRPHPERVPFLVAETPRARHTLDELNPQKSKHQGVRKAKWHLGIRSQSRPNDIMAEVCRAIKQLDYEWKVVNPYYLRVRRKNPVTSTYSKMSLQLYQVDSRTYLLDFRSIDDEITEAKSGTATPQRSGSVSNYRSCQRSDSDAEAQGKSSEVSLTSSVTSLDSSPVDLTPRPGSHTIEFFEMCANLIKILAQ

T4 sequence (Q16644 whole entry): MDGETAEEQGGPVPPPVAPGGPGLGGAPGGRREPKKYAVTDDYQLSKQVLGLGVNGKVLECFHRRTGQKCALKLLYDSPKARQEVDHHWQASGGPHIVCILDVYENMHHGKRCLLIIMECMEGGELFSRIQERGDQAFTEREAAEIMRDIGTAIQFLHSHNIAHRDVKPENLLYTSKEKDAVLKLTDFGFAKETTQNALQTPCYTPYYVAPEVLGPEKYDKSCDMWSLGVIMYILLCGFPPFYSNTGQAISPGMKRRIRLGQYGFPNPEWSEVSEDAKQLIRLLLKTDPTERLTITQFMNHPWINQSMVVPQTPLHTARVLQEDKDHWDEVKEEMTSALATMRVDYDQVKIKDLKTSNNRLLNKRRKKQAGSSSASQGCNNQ
T1 sequence (Q15059 whole entry): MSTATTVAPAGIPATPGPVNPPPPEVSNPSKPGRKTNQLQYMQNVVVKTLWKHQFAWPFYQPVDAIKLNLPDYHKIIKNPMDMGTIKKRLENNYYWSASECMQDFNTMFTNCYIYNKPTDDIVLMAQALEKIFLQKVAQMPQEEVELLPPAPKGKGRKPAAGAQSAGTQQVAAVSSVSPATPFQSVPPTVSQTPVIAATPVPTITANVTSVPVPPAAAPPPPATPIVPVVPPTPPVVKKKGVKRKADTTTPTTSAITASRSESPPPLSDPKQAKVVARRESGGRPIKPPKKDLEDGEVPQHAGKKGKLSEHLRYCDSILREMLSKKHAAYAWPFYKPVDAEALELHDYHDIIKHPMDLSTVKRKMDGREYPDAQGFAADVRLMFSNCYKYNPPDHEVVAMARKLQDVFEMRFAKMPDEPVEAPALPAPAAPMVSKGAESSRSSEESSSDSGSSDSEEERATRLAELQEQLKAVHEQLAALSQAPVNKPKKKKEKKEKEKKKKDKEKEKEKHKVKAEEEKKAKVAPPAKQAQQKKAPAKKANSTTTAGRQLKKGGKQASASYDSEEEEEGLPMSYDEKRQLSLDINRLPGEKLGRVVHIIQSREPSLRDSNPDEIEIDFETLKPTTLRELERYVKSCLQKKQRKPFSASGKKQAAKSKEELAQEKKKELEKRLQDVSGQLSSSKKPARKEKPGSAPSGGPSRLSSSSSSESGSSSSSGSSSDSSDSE
T3 sequence (P49137 whole entry): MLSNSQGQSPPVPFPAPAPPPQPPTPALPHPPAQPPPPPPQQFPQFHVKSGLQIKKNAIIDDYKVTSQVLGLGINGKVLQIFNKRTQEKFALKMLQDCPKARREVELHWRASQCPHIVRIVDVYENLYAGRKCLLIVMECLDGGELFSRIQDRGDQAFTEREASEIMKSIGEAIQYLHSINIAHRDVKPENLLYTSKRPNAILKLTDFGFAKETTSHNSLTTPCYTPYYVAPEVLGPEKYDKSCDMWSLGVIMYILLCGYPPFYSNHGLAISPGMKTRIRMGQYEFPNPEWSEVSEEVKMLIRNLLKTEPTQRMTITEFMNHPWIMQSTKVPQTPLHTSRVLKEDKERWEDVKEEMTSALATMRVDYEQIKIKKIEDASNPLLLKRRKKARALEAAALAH
Sequence of Protein arginine N-methyltransferase 1 (Q99873 whole entry): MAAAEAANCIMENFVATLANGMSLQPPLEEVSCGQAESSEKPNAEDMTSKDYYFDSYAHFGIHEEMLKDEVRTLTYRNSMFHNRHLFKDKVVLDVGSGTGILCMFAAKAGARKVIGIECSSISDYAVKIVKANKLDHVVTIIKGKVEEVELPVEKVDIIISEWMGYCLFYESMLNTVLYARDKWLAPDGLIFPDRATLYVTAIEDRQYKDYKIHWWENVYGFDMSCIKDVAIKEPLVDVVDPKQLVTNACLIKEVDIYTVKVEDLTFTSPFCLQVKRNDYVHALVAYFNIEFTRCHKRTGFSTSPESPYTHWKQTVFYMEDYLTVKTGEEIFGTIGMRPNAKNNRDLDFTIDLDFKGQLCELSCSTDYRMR
Sequence of Activated CDC42 kinase 1 (Q07912 whole entry): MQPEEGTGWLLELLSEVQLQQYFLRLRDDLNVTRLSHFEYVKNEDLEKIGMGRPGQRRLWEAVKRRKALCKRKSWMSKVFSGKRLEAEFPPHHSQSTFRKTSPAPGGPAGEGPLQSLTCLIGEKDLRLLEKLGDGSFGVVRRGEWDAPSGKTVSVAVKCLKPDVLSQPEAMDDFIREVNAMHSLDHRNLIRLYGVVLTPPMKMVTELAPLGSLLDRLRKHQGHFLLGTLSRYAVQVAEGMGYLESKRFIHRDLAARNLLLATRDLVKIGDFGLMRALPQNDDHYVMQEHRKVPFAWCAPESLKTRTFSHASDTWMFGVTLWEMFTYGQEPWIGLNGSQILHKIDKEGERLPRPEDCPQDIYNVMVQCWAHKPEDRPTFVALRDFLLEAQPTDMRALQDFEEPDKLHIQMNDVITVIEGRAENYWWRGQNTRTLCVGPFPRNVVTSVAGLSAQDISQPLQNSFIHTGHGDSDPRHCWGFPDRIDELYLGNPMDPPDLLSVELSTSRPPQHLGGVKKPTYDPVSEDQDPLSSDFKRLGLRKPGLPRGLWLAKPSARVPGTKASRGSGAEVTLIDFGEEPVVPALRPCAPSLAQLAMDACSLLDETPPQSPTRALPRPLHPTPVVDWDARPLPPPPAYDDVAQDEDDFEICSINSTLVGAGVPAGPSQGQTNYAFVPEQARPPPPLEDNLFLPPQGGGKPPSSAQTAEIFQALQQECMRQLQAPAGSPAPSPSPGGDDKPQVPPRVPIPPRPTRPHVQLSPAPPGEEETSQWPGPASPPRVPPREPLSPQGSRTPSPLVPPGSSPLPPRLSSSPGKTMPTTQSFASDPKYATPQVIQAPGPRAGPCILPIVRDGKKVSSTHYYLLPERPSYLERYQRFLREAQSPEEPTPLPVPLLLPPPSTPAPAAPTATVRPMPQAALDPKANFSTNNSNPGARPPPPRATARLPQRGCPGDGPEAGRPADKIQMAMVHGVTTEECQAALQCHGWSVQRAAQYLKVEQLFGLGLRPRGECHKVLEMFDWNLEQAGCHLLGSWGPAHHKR
Sequence of Protein arginine N-methyltransferase 3 (O60678 whole entry): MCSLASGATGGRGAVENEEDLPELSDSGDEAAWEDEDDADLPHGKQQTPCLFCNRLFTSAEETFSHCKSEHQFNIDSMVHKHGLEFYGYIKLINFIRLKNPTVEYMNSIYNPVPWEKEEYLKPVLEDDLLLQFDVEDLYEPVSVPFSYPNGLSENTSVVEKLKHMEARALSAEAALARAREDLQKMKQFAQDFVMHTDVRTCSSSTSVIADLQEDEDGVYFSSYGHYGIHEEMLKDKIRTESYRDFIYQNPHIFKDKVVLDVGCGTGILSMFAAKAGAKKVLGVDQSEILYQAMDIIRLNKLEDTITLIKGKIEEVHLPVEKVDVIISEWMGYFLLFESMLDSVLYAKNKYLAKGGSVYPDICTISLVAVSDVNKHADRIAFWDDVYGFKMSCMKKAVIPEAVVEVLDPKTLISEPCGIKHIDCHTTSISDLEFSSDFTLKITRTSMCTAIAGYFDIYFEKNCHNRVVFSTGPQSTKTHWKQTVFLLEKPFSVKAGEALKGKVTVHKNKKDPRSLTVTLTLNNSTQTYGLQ
Sequence of Protein arginine N-methyltransferase 8 (Q9NR22 whole entry): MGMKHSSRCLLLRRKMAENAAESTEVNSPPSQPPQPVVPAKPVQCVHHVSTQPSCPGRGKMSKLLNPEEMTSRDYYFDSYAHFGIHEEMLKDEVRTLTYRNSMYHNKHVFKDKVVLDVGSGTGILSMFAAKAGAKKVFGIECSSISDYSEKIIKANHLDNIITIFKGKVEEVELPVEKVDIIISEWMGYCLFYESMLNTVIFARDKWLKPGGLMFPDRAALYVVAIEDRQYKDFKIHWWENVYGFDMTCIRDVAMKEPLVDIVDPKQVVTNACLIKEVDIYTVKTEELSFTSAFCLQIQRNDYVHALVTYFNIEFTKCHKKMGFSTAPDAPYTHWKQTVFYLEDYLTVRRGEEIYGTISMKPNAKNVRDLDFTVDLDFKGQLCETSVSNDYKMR
Sequence of Cyclin-dependent kinase 8 (P49336 whole entry): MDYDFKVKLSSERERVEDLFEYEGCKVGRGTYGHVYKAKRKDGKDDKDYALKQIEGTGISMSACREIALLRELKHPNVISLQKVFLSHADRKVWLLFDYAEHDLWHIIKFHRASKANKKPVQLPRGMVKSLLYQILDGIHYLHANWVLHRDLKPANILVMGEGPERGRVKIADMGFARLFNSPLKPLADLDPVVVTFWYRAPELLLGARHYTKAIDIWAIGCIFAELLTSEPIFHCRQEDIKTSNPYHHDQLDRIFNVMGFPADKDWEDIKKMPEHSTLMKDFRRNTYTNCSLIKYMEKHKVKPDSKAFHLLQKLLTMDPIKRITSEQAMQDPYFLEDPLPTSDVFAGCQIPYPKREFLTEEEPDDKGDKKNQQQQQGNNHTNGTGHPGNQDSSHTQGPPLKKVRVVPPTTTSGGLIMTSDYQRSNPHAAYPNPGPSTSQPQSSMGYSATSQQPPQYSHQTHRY

Structure (SMILES): CC(C)Oc1ccc(-c2c[nH]cc2CN(C)CCO)cc1
IC50 [1]: > 50000 nM
IC50 [2]: > 50000 nM
IC50 [3]: > 50000 nM

Structure (SMILES): COc1cc2c(cc1-c1c(C)noc1C)ncc1[nH]c(=O)n([C@H](C)c3ccccn3)c12
IC50 [4]: 160 nM
IC50 [5]: 160 nM
IC50 [6]: 1260 nM
IC50 [7]: 1260 nM
IC50 [8]: 1260 nM
IC50 [9]: 1260 nM

Structure (SMILES): CCc1ccccc1C(=O)Nc1n[nH]c2c(C)c(F)c(C3C(C#N)=C(C)N(C)C(C)=C3C#N)cc12 [BAY-3827]
EC50 [21]: 150 nM

Other lines, results leading:

IC50 (Activated CDC42 kinase 1): 2410 nM
Structure (SMILES): c1ccc(-c2oc3ncnc(NC[C@@H]4CCCO4)c3c2-c2ccccc2)cc1

IC50 [10]: > 10000 nM
Structure (SMILES): CN(C)C(=O)Cn1cc(-c2ccc(-c3nnc4ccccn34)cc2)cn1

IC50 [11]: 130 nM
IC50 [12]: 2780 nM
IC50 [13]: 1260 nM
IC50 [14]: 2090 nM
IC50 [15]: 2780 nM
IC50 [16]: 1260 nM
IC50 [17]: 2090 nM
IC50 [18]: 2780 nM
IC50 [19]: 1260 nM
IC50 [20]: 2090 nM
Structure (SMILES): Cc1ccc(-c2ccc3c(ccc4sc5c(c43)NC[C@@H](C)NC5=O)n2)cn1
